Measurements taken from the supplement of paper PMC10307832.

Columns and labels:
Experiment in all cases: relative viability (nuclei count vs DMSO), 5 days (fraction); higher = more cells survive
NCI-H1651 = test system: NCI-H1651
Outline: (§1)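 The day after seeding in 1536-well plates, lung cancer cell lines were treated by pin tool with a single drug, or with a fixed anchor-drug dose together with five library-drug doses (not always all listed) in √10 steps. After 5 days, a combined fix-and-stain solution (final 0.05% Triton X-100, 1% formaldehyde, 1 ug/ml Hoechst) was added. Nuclei counted on 4× images gave relative viability as treated counts over vehicle counts, reported as the median of duplicate plates.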

NCI-H1793 = test system: NCI-H1793
Outline: as §1

NCI-H1944 = test system: NCI-H1944
Outline: as §1

NCI-H2023 = test system: NCI-H2023
Outline: as §1

NCI-H2085 = test system: NCI-H2085
Outline: as §1

NCI-H2087 = test system: NCI-H2087
Outline: as §1

NCI-H2405 = test system: NCI-H2405
Outline: as §1

NCI-H520 = test system: NCI-H520
Outline: as §1

NCI-H650 = test system: NCI-H650
Outline: as §1

NCI-H838 = test system: NCI-H838
Outline: as §1

SK-MES-1 = test system: SK-MES-1
Outline: as §1

Q: How did the relative viability (NCI-H1651; first compound 0.05 µM) turn out when `COc1cc2nccc(Oc3ccc(NC(=O)Nc4cc(C)on4)c(Cl)c3)c2cc1OC` [Tivozanib] + Cc1cc(Nc2cc(N3CCN(C)CC3)nc(Sc3ccc(NC(=O)C4CC4)cc3)n2)n[nH]1 [Tozasertib] (partner 0.1 µM) was run?
A: 0.758

Q: And the relative viability (NCI-H1651; first compound 0.1581 µM)?
A: 0.764

Q: And the relative viability (NCI-H1651; first compound 0.5 µM)?
A: 0.565

Q: And the relative viability (NCI-H1793; first compound 0.005 µM)?
A: 0.335

Q: What about the relative viability (NCI-H1793; first compound 0.01581 µM) of the same compound?
A: 0.45

Q: What about the relative viability (NCI-H1793; first compound 0.05 µM) of the same compound?
A: 0.392

Q: What about the relative viability (NCI-H1793; first compound 0.1581 µM) of the same compound?
A: 0.376

Q: What about the relative viability (NCI-H1793; first compound 0.5 µM) of the same compound?
A: 0.359

Q: And the relative viability (NCI-H1944; first compound 0.005 µM)?
A: 0.251

Q: And the relative viability (NCI-H1944; first compound 0.01581 µM)?
A: 0.245

Q: And the relative viability (NCI-H1944; first compound 0.05 µM)?
A: 0.257

Q: And the relative viability (NCI-H1944; first compound 0.1581 µM)?
A: 0.269

Q: What about the relative viability (NCI-H1944; first compound 0.5 µM) of the same compound?
A: 0.297

Q: And the relative viability (NCI-H2023; first compound 0.005 µM)?
A: 0.306

Q: What about the relative viability (NCI-H2023; first compound 0.01581 µM) of the same compound?
A: 0.324

Q: What about the relative viability (NCI-H2023; first compound 0.05 µM) of the same compound?
A: 0.405

Q: And the relative viability (NCI-H2023; first compound 0.1581 µM)?
A: 0.4

Q: What about the relative viability (NCI-H2023; first compound 0.5 µM) of the same compound?
A: 0.413

Q: What about the relative viability (NCI-H2085; first compound 0.005 µM) of the same compound?
A: 0.806

Q: What about the relative viability (NCI-H2085; first compound 0.01581 µM) of the same compound?
A: 0.699

Q: And the relative viability (NCI-H2085; first compound 0.05 µM)?
A: 0.905

Q: What about the relative viability (NCI-H2085; first compound 0.1581 µM) of the same compound?
A: 0.985

Q: What about the relative viability (NCI-H2085; first compound 0.5 µM) of the same compound?
A: 0.812

Q: What about the relative viability (NCI-H2087; first compound 0.005 µM) of the same compound?
A: 0.22

Q: And the relative viability (NCI-H2087; first compound 0.01581 µM)?
A: 0.316

Q: And the relative viability (NCI-H2087; first compound 0.05 µM)?
A: 0.261

Q: And the relative viability (NCI-H2087; first compound 0.1581 µM)?
A: 0.338

Q: What about the relative viability (NCI-H2087; first compound 0.5 µM) of the same compound?
A: 0.303

Q: What about the relative viability (NCI-H2405; first compound 0.005 µM) of the same compound?
A: 0.676

Q: What about the relative viability (NCI-H2405; first compound 0.01581 µM) of the same compound?
A: 0.753

Q: And the relative viability (NCI-H2405; first compound 0.05 µM)?
A: 0.841

Q: And the relative viability (NCI-H2405; first compound 0.1581 µM)?
A: 0.879

Q: What about the relative viability (NCI-H2405; first compound 0.5 µM) of the same compound?
A: 0.711

Q: And the relative viability (NCI-H520; first compound 0.005 µM)?
A: 0.402

Q: And the relative viability (NCI-H520; first compound 0.01581 µM)?
A: 0.373

Q: What about the relative viability (NCI-H520; first compound 0.05 µM) of the same compound?
A: 0.446

Q: What about the relative viability (NCI-H520; first compound 0.1581 µM) of the same compound?
A: 0.444

Q: And the relative viability (NCI-H520; first compound 0.5 µM)?
A: 0.433

Q: And the relative viability (NCI-H650; first compound 0.005 µM)?
A: 0.763

Q: What about the relative viability (NCI-H650; first compound 0.01581 µM) of the same compound?
A: 0.743

Q: And the relative viability (NCI-H650; first compound 0.05 µM)?
A: 0.743

Q: What about the relative viability (NCI-H650; first compound 0.1581 µM) of the same compound?
A: 0.732

Q: And the relative viability (NCI-H650; first compound 0.5 µM)?
A: 0.594

Q: And the relative viability (NCI-H838; first compound 0.005 µM)?
A: 0.268

Q: And the relative viability (NCI-H838; first compound 0.01581 µM)?
A: 0.291

Q: What about the relative viability (NCI-H838; first compound 0.05 µM) of the same compound?
A: 0.29

Q: What about the relative viability (NCI-H838; first compound 0.5 µM) of the same compound?
A: 0.291

Q: What about the relative viability (SK-MES-1; first compound 0.005 µM) of the same compound?
A: 0.801

Q: What about the relative viability (SK-MES-1; first compound 0.01581 µM) of the same compound?
A: 0.888

Q: What about the relative viability (SK-MES-1; first compound 0.05 µM) of the same compound?
A: 0.98

Q: What about the relative viability (SK-MES-1; first compound 0.1581 µM) of the same compound?
A: 0.901

Q: What about the relative viability (SK-MES-1; first compound 0.5 µM) of the same compound?
A: 0.789
